Source: patent US20240215577A1, “FUNGICIDAL PYRIDONES” (FMC Corporation, priority 2021, published 2024)

Columns and labels:
Type in all cases: in vivo
Details in all cases: 100 = 100% disease control, 0 = no control
Botrytis cinerea = test: Test E: tomato Botrytis, preventive spray on tomato seedlings
From the text: (§1) General protocol for preparing test suspensions for Tests A-F: the test compounds were first dissolved in acetone in an amount equal to 3% of the final volume and then suspended at the desired concentration (in ppm) in acetone and purified water (50/50 mix by volume) containing 250 ppm of the surfactant PEG400 (polyhydric alcohol esters). The resulting test suspensions were then used in Tests A-F.
(§2) The test suspension was sprayed to the point of run-off on tomato seedlings. The following day the seedlings were inoculated with a spore suspension of Botrytis cinerea (the causal agent of tomato Botrytis) and incubated in a saturated atmosphere at 20° C. for 48 h, and then moved to a growth chamber at 24° C. for 3 days, after which time visual disease ratings were made.
(§3) A rating of 100 indicates 100% disease control and a rating of 0 indicates no disease control (relative to the controls). A dash (-) indicates the compound was not tested.

[1] = system: Puccinia recondita f. sp. tritici; test: Test B: wheat leaf rust, preventive spray on wheat seedlings
From the text: as §1
(§4) The test solution was sprayed to the point of run-off on wheat seedlings. The following day the seedlings were inoculated with a spore suspension of Puccinia recondita f. sp. tritici (the causal agent of wheat leaf rust) and incubated in a saturated atmosphere at 20° C. for 24 h, and then moved to a growth chamber at 20° C. for 7 days, after which time visual disease ratings were made.
as §3

[2] = system: Blumeria graminis f. sp. tritici; test: Test C: wheat powdery mildew, preventive spray on wheat seedlings
From the text: as §1
The test suspension was sprayed to the point of run-off on wheat seedlings. The following day the seedlings were inoculated with a spore dust of Blumeria graminis f. sp. tritici, (also known as Eysiphe graminis f. sp. tritici, the causal agent of wheat powdery mildew) and incubated in a growth chamber at 20° C. for 8 days, after which time visual disease ratings were made.
as §3

Phakopsora pachyrhizi = test: Test D: Asian soybean rust, preventive spray on soybean seedlings
From the text: as §1
as §4, with “soybean” for “wheat”, “Phakopsora pachyrhizi” for “Puccinia recondita f. sp. tritici”, “Asian soybean” for “wheat leaf”, “22°” for “20°”, “h” for “h,”, “8” for “7”
as §3

Alternaria solani = test: Test F: tomato early blight, preventive spray on tomato seedlings
From the text: as §1
as §2, with “Alternaria solani” for “Botrytis cinerea”, “early blight)” for “Botrytis)”, “27°” for “20°”, “20°” for “24°”
as §3

Zymoseptoria tritici = test: Test A: wheat leaf blotch, preventive spray on wheat seedlings
From the text: as §1
The test solution was sprayed to the point of run-off on wheat seedlings. The following day the seedlings were inoculated with a spore suspension of Zymoseptoria tritici (the causal agent of wheat leaf blotch) and incubated in a saturated atmosphere at 24° C. for 48 h, and then moved to a growth chamber at 20° C. for 17 days, after which time disease ratings were made.
as §3

[3] = Botrytis cinerea, 50 ppm, read-out: Test E disease control rating
[4] = Puccinia recondita, 50 ppm, read-out: Test B disease control rating
[5] = Blumeria graminis, 50 ppm, read-out: Test C disease control rating
[6] = Phakopsora pachyrhizi, 216 h, 50 ppm, read-out: Test D disease control rating
[7] = Alternaria solani, 50 ppm, read-out: Test F disease control rating
[8] = Zymoseptoria tritici, 50 ppm, read-out: Test A disease control rating

| SMILES | Test E disease control rating (Botrytis cinerea; 50 ppm) | Test B disease control rating ([1]; 50 ppm) | Test C disease control rating ([2]; 50 ppm) | Test D disease control rating (Phakopsora pachyrhizi; 50 ppm) | Test F disease control rating (Alternaria solani; 50 ppm) | Test A disease control rating (Zymoseptoria tritici; 50 ppm) | other results |
| --- | --- | --- | --- | --- | --- | --- | --- |
| Cn1cc(-c2cc(F)ccc2Cl)c(-c2ccc(F)cc2Cl)c(Cl)c1=O [Compound 1] | 98% | 100% | 0% | 0% | 46% | 100% | – |
| Cn1cc(-c2cc(F)ccc2Cl)c(-c2ccc(F)cc2Cl)c(I)c1=O [Compound 2] | 91% | 98% | 0% | 0% | 33% | 100% | – |
| COc1cc(OC)cc(-c2cn(C)c(=O)c(Cl)c2-c2ccc(F)cc2Cl)c1 [Compound 3, 3-chloro-4-(2-chloro-4-fluorophenyl)-5-(3,5-dimethoxyphenyl)-1-methyl-2(11)-pyridinone] | 100% | 100% | 0% | 65% | 100% | 99% | – |
| COc1cc(OC)c(Cl)c(-c2cn(C)c(=O)c(Cl)c2-c2ccc(F)cc2Cl)c1 [Compound 4, 3-chloro-5-(2-chloro-3,5-dimethoxyphenyl)-4-(2-chloro-4-fluorophenyl)-1-methyl-2(1H)-pyridinone] | – | – | – | – | – | – | pest or weed control at 50 ppm (Botrytis cinerea; [3]): 100%; pest or weed control at 50 ppm [1, 4]: 100%; pest or weed control at 50 ppm [2, 5]: 98%; pest or weed control at 50 ppm (Phakopsora pachyrhizi; [6]): 99%; pest or weed control at 50 ppm (Alternaria solani; [7]): 100%; pest or weed control at 50 ppm (Zymoseptoria tritici; [8]): 100% |
| COc1cc(-c2cn(C)c(=O)c(Cl)c2-c2ccc(F)cc2Cl)cc(OC)c1Cl [Compound 5, 3-chloro-5-(4-chloro-3,5-dimethoxyphenyl)-4-(2-chloro-4-fluorophenyl)-1-methyl-2(1H)-pyridinone] | – | – | – | – | – | – | pest or weed control at 250 ppm (Botrytis cinerea; Botrytis cinerea, 250 ppm, read-out: Test E disease control rating): 98%; pest or weed control at 250 ppm ([1]; Puccinia recondita, 250 ppm, read-out: Test B disease control rating): 100%; pest or weed control at 250 ppm ([2]; Blumeria graminis, 250 ppm, read-out: Test C disease control rating): 0%; pest or weed control at 250 ppm (Phakopsora pachyrhizi; Phakopsora pachyrhizi, 216 h, 250 ppm, read-out: Test D disease control rating): 78%; pest or weed control at 250 ppm (Alternaria solani; Alternaria solani, 250 ppm, read-out: Test F disease control rating): 99%; pest or weed control at 250 ppm (Zymoseptoria tritici; Zymoseptoria tritici, 250 ppm, read-out: Test A disease control rating): 100% |
| COc1cccc(-c2c(-c3ccc(F)cc3Cl)c(C#N)c(=O)n(C)c2C)c1 [Compound 6] | – | – | – | – | – | – | Test E disease control rating (Botrytis cinerea; 250 ppm): 0%; Test B disease control rating ([1]; 250 ppm): 0%; Test C disease control rating ([2]; 250 ppm): 89%; Test D disease control rating (Phakopsora pachyrhizi; 250 ppm): 0%; Test F disease control rating (Alternaria solani; 250 ppm): 0%; Test A disease control rating (Zymoseptoria tritici; 250 ppm): 0% |
| COc1cccc(-c2cn(C)c(=O)c(Cl)c2-c2ccc(F)cc2F)c1 [Compound 8] | – | – | – | – | – | – | Test E disease control rating (Botrytis cinerea; 250 ppm): 99%; Test B disease control rating ([1]; 250 ppm): 100%; Test C disease control rating ([2]; 250 ppm): 98%; Test D disease control rating (Phakopsora pachyrhizi; 250 ppm): 81%; Test F disease control rating (Alternaria solani; 250 ppm): 99%; Test A disease control rating (Zymoseptoria tritici; 250 ppm): 100% |
| CCCOc1ccc(Cl)c(-c2cn(C)c(=O)c(Cl)c2-c2ccc(F)cc2F)c1 [Compound 10] | 94% | 99% | 79% | 0% | 0% | 99% | – |
| Cn1cc(-c2ccccc2)c(-c2c(F)cccc2F)c(Cl)c1=O [Compound 11] | 97% | 80% | 0% | 0% | 94% | 99% | – |
| COc1cc(OC)cc(-c2cn(C)c(=O)c(C)c2-c2ccc(F)cc2Cl)c1 [Compound 12] | 92% | 99% | 40% | 83% | 99% | 100% | – |
| Cn1cc(-c2cc(F)ccc2Cl)c(-c2ccc(F)cc2Cl)c(C#N)c1=O [Compound 14] | 96% | 100% | 0% | 0% | 0% | 100% | – |
| Cn1cc(-c2ccccc2Cl)c(-c2ccc(F)cc2Cl)c(Cl)c1=O [Compound 15] | 88% | 100% | 69% | 0% | 0% | 100% | – |
| Cn1cc(-c2ccc(F)cc2Cl)c(-c2c(F)cccc2F)c(Cl)c1=O [Compound 16] | 96% | 97% | 0% | 68% | 31% | 100% | – |
| Cn1cc(-c2ccc(F)cc2)c(-c2c(F)cccc2F)c(Cl)c1=O [Compound 17] | 98% | 99% | 0% | 75% | 100% | 100% | – |
| Cc1c(-c2ccc(F)cc2Cl)c(-c2cc(F)ccc2Cl)cn(C)c1=O [Compound 18] | 98% | 100% | 94% | 96% | 99% | 100% | – |
| COc1cc(OC)cc(-c2cn(OC)c(=O)c(Cl)c2-c2ccc(F)cc2Cl)c1 [Compound 19, 3-chloro-4-(2-chloro-4-fluorophenyl)-5-(3,5-dimethoxyphenyl)-1-methoxy-2(1H)-pyridinone] | – | – | – | – | – | – | pest or weed control at 50 ppm (Botrytis cinerea; [3]): 98%; pest or weed control at 50 ppm [1, 4]: 99%; pest or weed control at 50 ppm [2, 5]: 0%; pest or weed control at 50 ppm (Phakopsora pachyrhizi; [6]): 11%; pest or weed control at 50 ppm (Alternaria solani; [7]): 0%; pest or weed control at 50 ppm (Zymoseptoria tritici; [8]): 58% |
| COc1cc(-c2cn(C)c(=O)c(Cl)c2-c2ccc(F)cc2F)ccc1Br [Compound 21] | 94% | 96% | 0% | 0% | 91% | 70% | – |
| COc1cc(OC)c(Cl)c(-c2cn(OC)c(=O)c(Cl)c2-c2ccc(F)cc2Cl)c1 [Compound 22, 3-chloro-4-(2-chloro-4-fluorophenyl)-5-(2-chloro-3,5-dimethoxyphenyl)-1-methoxy-2(1H)-pyridinone] | – | – | – | – | – | – | pest or weed control at 50 ppm (Botrytis cinerea; [3]): 98%; pest or weed control at 50 ppm [1, 4]: 100%; pest or weed control at 50 ppm [2, 5]: 76%; pest or weed control at 50 ppm (Phakopsora pachyrhizi; [6]): 97%; pest or weed control at 50 ppm (Alternaria solani; [7]): 99%; pest or weed control at 50 ppm (Zymoseptoria tritici; [8]): 99% |
| CCc1c(-c2ccc(F)cc2Cl)c(-c2cc(F)ccc2Cl)cn(C)c1=O [Compound 23] | 69% | 100% | 99% | 0% | 83% | 100% | – |
| COc1ccc(Cl)c(-c2cn(C)c(=O)c(Cl)c2-c2ccccc2Br)c1 [Compound 67] | 91% | – | 56% | 73% | 33% | 99% | – |
